Assay results: publication PMC10502027, “Class III hybrid cluster protein homodimeric architecture shows evolutionary relationship with Ni, Fe-carbon monoxide dehydrogenases” (Nature Communications, 2023)

Target: T1, Mm HCP (Methanothermobacter marburgensis, UniProt D9PYV4)
T1 construct: full length with N-terminal rubredoxin domain (Met1-Arg52), C-terminal His6-tag, recombinant from E. coli C41(DE3) with pBBRISC, anaerobically purified; homodimer
T1 sequence (D9PYV4 1-491): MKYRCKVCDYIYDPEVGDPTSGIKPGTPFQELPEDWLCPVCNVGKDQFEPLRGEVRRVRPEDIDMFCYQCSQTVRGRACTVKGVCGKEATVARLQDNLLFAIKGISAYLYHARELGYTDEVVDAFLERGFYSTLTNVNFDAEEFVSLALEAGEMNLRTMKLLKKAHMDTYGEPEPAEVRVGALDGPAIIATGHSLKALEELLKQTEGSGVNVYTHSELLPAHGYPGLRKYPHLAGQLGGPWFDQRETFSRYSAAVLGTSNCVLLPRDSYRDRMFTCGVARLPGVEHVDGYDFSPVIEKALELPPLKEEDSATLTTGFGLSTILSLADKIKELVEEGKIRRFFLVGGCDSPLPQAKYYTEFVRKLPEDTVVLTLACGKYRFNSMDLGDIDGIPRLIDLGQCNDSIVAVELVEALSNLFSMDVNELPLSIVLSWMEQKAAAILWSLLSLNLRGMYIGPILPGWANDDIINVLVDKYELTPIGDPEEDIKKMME
Type: binding

SMILES: [S]12[Fe]3[S]4[Fe]1[S]1[Fe]2[S]3[Fe]41 [[4Fe-4S] cluster]
- X-ray crystal structure, 2.8 Å: The Fe ions, [4Fe-4S] cluster and hybrid cluster ([4Fe-2S-3O] cluster) are represented as spheres
